Numbered stars: 1 amine (or outer) side, 2 acyl side, 3 side chain; on linkers, the order of the positions; unused ones are H or OH. Square brackets hold non-standard residues; d marks the D form. Peptide text beside a SMILES is read from it. * marks the point of attachment. NMeNle = CCCC[C@H](NC)C(=O)O; Suc = O=C(CCC(=O)[*:2])[*:1]; Malonamoyl = NC(=O)CC(=O)*; X3 = O=C(CS(=O)(=O)O)*; Boc = CC(C)(C)OC(=O)*; X2 = COC(=O)CC(=O)*; βAla = NCCC(=O)O
What was measured:
[1] = molecular target: T1, Cholecystokinin receptor type A (Cavia porcellus, UniProt Q63931); assay: Affinity against Cholecystokinin type A receptor on guinea pig pancreatic membranes.
T1 sequence (Q63931 whole entry): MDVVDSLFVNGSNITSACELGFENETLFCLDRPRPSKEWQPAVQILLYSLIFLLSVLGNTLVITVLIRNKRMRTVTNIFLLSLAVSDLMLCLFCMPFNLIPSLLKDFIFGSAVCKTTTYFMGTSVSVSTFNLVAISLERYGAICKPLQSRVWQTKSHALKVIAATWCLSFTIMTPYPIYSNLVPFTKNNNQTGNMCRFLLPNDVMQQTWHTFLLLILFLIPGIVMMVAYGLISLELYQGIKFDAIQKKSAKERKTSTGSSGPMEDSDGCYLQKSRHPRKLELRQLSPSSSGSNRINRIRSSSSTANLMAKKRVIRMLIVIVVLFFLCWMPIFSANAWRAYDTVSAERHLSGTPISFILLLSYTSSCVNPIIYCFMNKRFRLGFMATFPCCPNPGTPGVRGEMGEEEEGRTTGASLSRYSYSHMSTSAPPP

[2] = molecular target: Gastrin/cholecystokinin type B receptor (Cavia porcellus); assay: Binding affinity against cholecystokinin type B receptor on guinea pig cortex.
[3] = molecular target: T2, Gastrin/cholecystokinin type B receptor (Rattus norvegicus, UniProt P30553); assay: Compound was tested for binding affinity against Cholecystokinin type B receptor expressed in CHO cells on the rat brain.; assay type: cell-based
T2 sequence (P30553 whole entry): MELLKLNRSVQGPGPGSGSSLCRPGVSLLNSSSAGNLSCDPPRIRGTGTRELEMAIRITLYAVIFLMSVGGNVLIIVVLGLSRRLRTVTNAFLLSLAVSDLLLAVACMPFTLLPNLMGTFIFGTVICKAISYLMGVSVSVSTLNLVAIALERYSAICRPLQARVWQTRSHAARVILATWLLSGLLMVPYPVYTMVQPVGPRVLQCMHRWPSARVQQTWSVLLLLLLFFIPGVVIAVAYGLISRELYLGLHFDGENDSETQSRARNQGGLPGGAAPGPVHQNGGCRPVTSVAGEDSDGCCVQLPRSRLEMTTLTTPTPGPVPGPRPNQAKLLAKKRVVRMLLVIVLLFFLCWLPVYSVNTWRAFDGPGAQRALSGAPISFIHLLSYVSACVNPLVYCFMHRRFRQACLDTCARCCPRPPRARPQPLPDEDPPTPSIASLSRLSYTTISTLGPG

[4] = molecular target: T2, Gastrin/cholecystokinin type B receptor; assay: Affinity against Cholecystokinin type B receptor expressed in CHO cells on rat brain.; assay type: functional, cell-based

Row | Ki [1] | SMILES | also measured
1 | > 3000 nM | CCCC[C@@H](C(=O)N[C@@H](CC(=O)O)C(=O)N[C@@H](Cc1ccccc1)C(N)=O)N(C)C(=O)[C@H](Cc1c[nH]c2ccccc12)NC(=O)[C@H](C)N | –
2 | 2210 nM | C[C@@]1(Cc2c[nH]c3ccccc23)NC(=O)CCCCCCC[C@@H](C(=O)N[C@@H](CC(=O)O)C(=O)N[C@@H](Cc2ccccc2)C(N)=O)NC1=O | –
3 | > 3000 nM | CCCC[C@@H](C(=O)N[C@@H](CC(=O)O)C(=O)N[C@@H](Cc1ccccc1)C(N)=O)N(C)C(=O)[C@H](Cc1c[nH]c2ccccc12)NC(=O)[C@@H](C)N | –
4 | 2900 nM | CCCC[C@H](NC(=O)[C@H](Cc1c[nH]c2ccccc12)NC(=O)[C@H]1CCCCNC(=O)C[C@H](NC(=O)OC(C)(C)C)C(=O)N[C@H](Cc2ccc(OS(=O)(=O)O)cc2)C(=O)N[C@@H](CCCC)C(=O)N1)C(=O)N[C@@H](CC(=O)O)C(=O)N[C@@H](Cc1ccccc1)C(N)=O | –
5 | > 5000 nM | CCCC[C@@H](C(=O)N[C@@H](CC(=O)O)C(=O)N[C@@H](Cc1ccccc1)C(N)=O)N(C)C(=O)[C@H](Cc1c[nH]c2ccccc12)NC(=O)OC(C)(C)C (Boc-W[NMeNle]DF-NH2) | Ki [2]: 0.8 nM; Ki [3]: 2.6 nM
6 | > 3000 nM | CCCC[C@@H](C(=O)N[C@@H](CC(=O)O)C(=O)N[C@@H](Cc1ccccc1)C(N)=O)N(C)C(=O)[C@H](Cc1c[nH]c2ccccc12)NC(=O)CN (H-GW[NMeNle]DF-NH2) | –
7 | > 3000 nM | CCCC[C@@H](C(=O)N[C@@H](CC(=O)O)C(=O)N[C@@H](Cc1ccccc1)C(N)=O)N(C)C(=O)[C@@H](N)Cc1c[nH]c2ccccc12 (H-W[NMeNle]DF-NH2) | –
8 | 22800 nM | CCCC[C@@H](C(=O)N[C@@H](CC(=O)O)C(=O)N[C@@H](Cc1ccccc1)C(N)=O)N(C)C(=O)[C@H](Cc1c[nH]c2ccccc12)NC(=O)CC(N)=O (Malonamoyl-W[NMeNle]DF-NH2) | EC50 [4]: 1.64 nM
9 | > 3000 nM | CCCC[C@@H](C(=O)N[C@@H](CC(=O)O)C(=O)N[C@@H](Cc1ccccc1)C(N)=O)N(C)C(=O)[C@H](Cc1c[nH]c2ccccc12)NC(=O)CCC(=O)O (Suc-W[NMeNle]DF-NH2) | –
10 | – | CCCC[C@@H](C(=O)N[C@@H](CC(=O)O)C(=O)N[C@@H](Cc1ccccc1)C(N)=O)N(C)C(=O)[C@H](Cc1c[nH]c2ccccc12)NC(=O)CC(=O)OC (X2-W[NMeNle]DF-NH2) | EC50 [4]: 2 nM
11 | – | CCCC[C@@H](C(=O)N[C@@H](CC(=O)O)C(=O)N[C@@H](Cc1ccccc1)C(N)=O)N(C)C(=O)[C@H](Cc1c[nH]c2ccccc12)NC(=O)CS(=O)(=O)O (X3-W[NMeNle]DF-NH2) | EC50 [4]: 0.56 nM
12 | 4620 nM | CCCC[C@@H](C(=O)N[C@@H](CC(=O)O)C(=O)N[C@@H](Cc1ccccc1)C(N)=O)N(C)C(=O)[C@H](Cc1c[nH]c2ccccc12)NC(=O)CCNC(=O)OC(C)(C)C ({Boc-βAla}-W[NMeNle]DF-NH2) | –

— ChEMBL document CHEMBL1133672, “Replacement of glycine with dicarbonyl and related moieties in analogues of the C-terminal pentapeptide of cholecystokinin: CCK(2) agonists displaying a novel binding mode” (J Med Chem, 2000)
